Consider one compound from PMC5653977 (EMBO Molecular Medicine, 2017).

Usually IC50 stands for the concentration at which inhibition is half-maximal.

One data set has as its system GAL4/UAS system. Nature of the data set: GAL4/UAS control assay. It is filed as cell-based. The note with it: GV and 10×UAS-Fluc plasmids in PC12 cells. From the text:
(§1) All counts (407 compounds and 96 controls) from the Nrg1‐ERBB4‐PIK3R1 split TEV compound screen were plotted against the z‐score using Mondrian, with pathway activators displaying high values and inhibitors low values. For the secondary analysis, we selected all candidates that were at least three standard deviations away from the mean. […] For the GAL4/UAS assay, GAL4‐VP16 (GV) and 10×UAS firefly luciferase (10×UAS‐Fluc) plasmids were transfected into PC12 cells. For TEV protease activity assays, a transmembrane‐localized TEV protease (TM‐TEV) was expressed in PC12 cells with a transmembrane‐localized and TEV‐cleavable GV (TM‐tevS‐GV) and the 10×UAS‐Fluc reporter. […] EGFld was applied as Nrg1 stimulus. In both control assays, the assay activity (firefly luciferase, black lines) was similar to the toxicity levels (gray lines). Data are shown as mean, a nd error bars represent SEM, n = 6. The insets depict IC50 values in μM.

For another data set, the target named is EGFR dimers (Homo sapiens, UniProt P00533). As to the kind of experiment: ERBB dimerization split TEV assay EGFR/EGFR. It is filed as cell-based. From the text:
(§2) Gateway recombination cloning (Life Technologies) was applied for generating plasmids. Each ORF cloned was PCR‐amplified using the Pwo proofreading DNA polymerase (Roche) and BP‐recombined into the pDONR/Zeo plasmid (Life Technologies) to yield an entry vector, which was control‐digested using BsrGI to release the insert, and sequence‐verified. The following human ORFs were cloned using cDNA image clones ordered from Source BioScience: ERBB4 transcript variant JM‐a/CYT‐1 (Accession: BC112199), PIK3R1 (BC094795), GRB2 transcript variant 1 (BC000631), SHC1 transcript variant 2 (BC014158), STAT5A (BC027036), and SRC transcription variant 1 (BC051270). For EGFR, ERBB2, and ERBB3, entry vectors were obtained from the human CCSB kinase collection available from Addgene (Johannessen et al, 2010). Entry vectors were LR‐recombined into split TEV destination vectors [either pcDNA_attR1‐ORF‐attR2‐NTEV‐tevS‐GV‐2xHA_DEST or pTag4C_attR1‐ORF‐attR2‐CTEV‐2xHA_DEST, plasmids were described in detail before (Wehr et al, 2006)] to yield expression vectors, which were control‐digested using BsrGI. The plasmids for Nrg1 type I β1a and rat Nrg1 type III β1a have been described before (Wehr et al, 2006).

In data set [1] the test system is Nrg1-tg and wt mice. As to the kind of experiment: Open field test. The note with it: 50 mg/kg s.c. daily. The data set is classed as in vivo, mouse. The protocol:
(§3) For behavioral testing, age‐matched male mice (8–16 weeks) on C57Bl/6 background that constitutively overexpress the 2xHA‐tagged Nrg1 type III β1a isoform (Nrg1‐tg) under the control of the mouse Thy1.2 promoter (Velanac et al, 2012) and their wild‐type (wt) littermates as controls were used. Animals were group‐housed in the same ventilated sound‐attenuated rooms under a 12‐h light/12‐h dark schedule (lights on at 8:00 am) at an ambient temperature of 21°C with food and water available ad libitum. One week prior to experiments, mice were separated into single cages and habituated to the experimental rooms. To minimize the influence of the circadian rhythm on drug actions, the treatment groups were analyzed at balanced time points during the light phase. […] All animal experiments were conducted in accordance with NIH principles of laboratory animal care and were approved by the Government of Lower Saxony, Germany, in accordance with the German Animal Protection Law.
(§4) Treatment was continued throughout the behavioral analysis period. To avoid injection‐induced stress prior to behavioral testing, mice were injected in the afternoon, after the entire cohort has completed the behavioral paradigm.
Spontaneous locomotor activity was verified in the open‐field test using a Plexiglas box (45 × 45 × 55 cm). The same test arena was modified with a floor insert containing 16 symmetrically allocated holes for the hole board test. During a 10‐min testing session, mouse behavior was monitored by infrared sensors and recorded by the ActiMot software (TSE, Bad Homburg, Germany). Levels of urination (scored in events) and defecation (scored as feci in events) were determined manually during the open‐field test.

In another data set the target is T1, TEV protease (Tobacco etch virus, UniProt P04517).
T1 construct: a transmembrane‐localized TEV protease (TM‐TEV) was expressed in PC12 cells; expressed in transfected cells; host or cells: PC12 Tet-Off cells (rat)
T1 sequence (P04517 2038-2279): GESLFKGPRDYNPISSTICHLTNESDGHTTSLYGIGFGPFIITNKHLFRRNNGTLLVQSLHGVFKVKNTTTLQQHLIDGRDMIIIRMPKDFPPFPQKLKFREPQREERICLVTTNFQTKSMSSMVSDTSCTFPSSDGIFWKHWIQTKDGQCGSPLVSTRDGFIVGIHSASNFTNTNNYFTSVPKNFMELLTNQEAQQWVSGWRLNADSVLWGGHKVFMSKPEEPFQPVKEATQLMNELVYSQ
Nature of the data set: TEV protease activity control assay (TM-TEV/TM-tevS-GV). The data set is classed as cell-based. The note with it: TM-TEV, TM-tevS-GV and 10×UAS-Fluc in PC12 cells.
Description: as §1

The test system of data set [2] is Nrg1-tg and wt mice. Nature of the data set: Tail suspension test. The data set is classed as in vivo, mouse. The note with it: 50 mg/kg s.c. daily. The protocol:
as §3, §4

In data set [3] the target is ERBB2-NTEV-tevS-GV + ERBB3-CTEV (Homo sapiens, UniProt P04626+P21860). As to the kind of experiment: ERBB dimerization split TEV assay ERBB2/ERBB3. The data set is classed as cell-based. The note with it: 10 ng/ml EGFld.
Description: as §2

The conditions of data set [4]: mouse, in vivo. The protocol: as §4

Structures are written as SMILES. Read-outs that look alike come from different tables or passages of the source.

Chain of EGFR dimers (P00533 25-1210): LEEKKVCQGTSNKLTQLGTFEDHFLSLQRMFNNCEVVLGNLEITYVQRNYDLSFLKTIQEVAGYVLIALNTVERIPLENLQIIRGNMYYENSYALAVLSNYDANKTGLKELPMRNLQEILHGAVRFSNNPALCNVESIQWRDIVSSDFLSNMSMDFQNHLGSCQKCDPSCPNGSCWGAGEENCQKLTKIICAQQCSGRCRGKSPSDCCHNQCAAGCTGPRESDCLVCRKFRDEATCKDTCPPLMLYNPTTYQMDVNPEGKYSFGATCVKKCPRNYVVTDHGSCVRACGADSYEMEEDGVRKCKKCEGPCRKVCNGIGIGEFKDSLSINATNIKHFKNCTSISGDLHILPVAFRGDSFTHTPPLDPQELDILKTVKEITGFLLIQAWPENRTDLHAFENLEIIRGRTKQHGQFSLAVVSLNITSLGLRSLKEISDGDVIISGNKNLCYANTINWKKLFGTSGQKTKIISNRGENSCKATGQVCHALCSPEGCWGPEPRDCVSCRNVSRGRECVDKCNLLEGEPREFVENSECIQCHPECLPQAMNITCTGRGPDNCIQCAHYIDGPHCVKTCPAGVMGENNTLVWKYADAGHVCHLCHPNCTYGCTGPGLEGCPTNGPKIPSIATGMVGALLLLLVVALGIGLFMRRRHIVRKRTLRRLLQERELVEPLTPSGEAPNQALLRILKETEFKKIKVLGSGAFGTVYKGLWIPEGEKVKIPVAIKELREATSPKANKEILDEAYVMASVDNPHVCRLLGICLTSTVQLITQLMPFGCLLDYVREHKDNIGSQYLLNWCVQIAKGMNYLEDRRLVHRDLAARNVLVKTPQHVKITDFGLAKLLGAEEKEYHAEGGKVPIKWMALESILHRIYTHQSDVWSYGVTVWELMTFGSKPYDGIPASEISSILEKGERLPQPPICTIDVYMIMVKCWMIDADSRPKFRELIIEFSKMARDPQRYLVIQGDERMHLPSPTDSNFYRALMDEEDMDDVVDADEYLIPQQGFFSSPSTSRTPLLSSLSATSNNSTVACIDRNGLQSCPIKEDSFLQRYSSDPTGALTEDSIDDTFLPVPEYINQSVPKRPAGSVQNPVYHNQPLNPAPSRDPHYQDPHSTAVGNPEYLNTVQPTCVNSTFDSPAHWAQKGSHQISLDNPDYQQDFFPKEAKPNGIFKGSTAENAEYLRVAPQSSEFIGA
Chain of EGFR dimers (P00533 25-1210): as above

Take `CC(=O)S[C@@H]1CC2=CC(=O)CC[C@]2(C)[C@H]2CC[C@@]3(C)[C@@H](CC[C@@]34CCC(=O)O4)[C@H]12` [Spironolactone]: the “effect on activity of the GAL4/UAS system” value in the data set on GAL4/UAS system is “does not affect activities of control assays”. Further, the IC50 at EGFR dimers (100 ng/ml EGF as stimulus, read-out: IC50, EGFR dimers, stimulus EGF) came out at 1.74 µM; at EGFR dimers (PC12 cells, 10 ng/ml EGFld, read-out: IC50, EGFR-NTEV-tevS-GV + EGFR-CTEV), 8.5 µM; in data set [3], 9.23 µM. Also, in the data set on Nrg1-tg and wt mice [1], the “defecation in the open-field test” value is listed as “no effect of treatment observed”. Also, the “time in the center of the open-field arena” value with Nrg1-tg and wt mice [1] is listed as “did not influence this parameter”. The “urination in the open-field test” value in the data set on Nrg1-tg and wt mice [1] is recorded as “without effect of treatment”. In the data set with Nrg1-tg and wt mice [1] (Nrg1-tg mice), the “locomotor hyperactivity (distance in the open-field arena)” value is “reverted”. Also, on TEV protease, the “effect on activity of the TEV protease” value is “does not affect activities of control assays”. The “time active in the tail suspension test (genotype effect)” value with Nrg1-tg and wt mice [2] is “independent of treatment”. Besides, the “side effect in treated mice” value in data set [4] is on record as “no major side effect”.
